Measured values as given in patent US6136845A (The Texas A&M University System, priority 1998, dated 2000).

Experiments:
[1] = test system: uterine cytosolic PR; experiment: Uterine cytosolic PR levels in ovariectomized rats (Example 4); format: in vivo, Sprague-Dawley rat; details: 0.4 mg/kg/day each oral, 20 days
Source text: (§1) Rats were euthanized on day 21.

[2] = test system: CYP1A1; details: result in words; cited from earlier work
[3] = test system: CYP1A1; details: cited from earlier work
[4] = test system: mammary tumor; details: cited from earlier work
[5] = test system: uterine progesterone receptor; experiment: Uterine progesterone receptor in ovariectomized rats (Example 6, Table 6); format: in vivo, Sprague-Dawley rat; details: tamoxifen 0.4, 6-MCDF 0.8 mg/kg/day oral, 20 days
Source text: as §1

[6] = test system: mammary tumors; experiment: DMBA-induced rat mammary tumor model, tumor volume and weight; format: in vivo, Sprague-Dawley rat; details: 20 days
Description: Female virgin Sprague-Dawley rats were obtained from Harlan (Houston) and were allowed to acclimate for 10 days, allowed access to food and water ad libitum, and maintained on a 12 h light/dark schedule. Mammary tumors were induced in 50±3 day old-rats by administering a single gavage dose of 20 mg DMBA in 0.5 ml corn oil. […] Tumor sizes were measured with calipers, and volumes were calculated by formula (length×width×depth)/6π and are expressed as percent control. […] All tumors were removed, weighed, and sectioned. One portion was frozen in liquid nitrogen for PCR analysis; one portion was placed in 10% formalin for histopathological analysis; and the majority was immediately homogenized for the preparation of microsomal and cytosolic fractions. Livers were perfused and weighed, and cytosol and microsomes were prepared as previously described.

[7] = Body and organ weights in DMBA-treated rats
Description: (§2) Female virgin Sprague-Dawley rats were obtained from Harlan (Houston) and were allowed to acclimate for 10 days, allowed access to food and water ad libitum, and maintained on a 12 h light/dark schedule. Mammary tumors were induced in 50±3 day old-rats by administering a single gavage dose of 20 mg DMBA in 0.5 ml corn oil. […] Tumor sizes were measured with calipers, and volumes were calculated by formula (length×width×depth)/6π and are expressed as percent control. One week after their last injection, rats were euthanized by asphyxiation. All tumors were removed, weighed, and sectioned. One portion was frozen in liquid nitrogen for PCR analysis; one portion was placed in 10% formalin for histopathological analysis; and the majority was immediately homogenized for the preparation of microsomal and cytosolic fractions. Livers were perfused and weighed, and cytosol and microsomes were prepared as previously described.

[8] = test system: liver; details: result in words; cited from earlier work
[9] = test system: Ah receptor; details: result in words; cited from earlier work
[10] = Body and organ weights (Example 6, Table 7)
Description: For Table 7 and FIGS. 3 and 3B, exact aged virgin female Sprague-Dawley rats were dosed on day 55 in the afternoon with 20 mg/rat 7,12-dimethylbenz[a]anthacene in a volume of 0.5 ml/rat corn oil (rats weigh approximately 165 g, resulting in 120 mg/kg DMBA and 3 ml/kg corn oil).

[11] = test system: uterus; experiment: Uterine wet weight in ovariectomized rats (Example 6, Table 6); format: in vivo, Sprague-Dawley rat; details: tamoxifen 0.4, 6-MCDF 0.8 mg/kg/day oral, 20 days
Source text: as §1

[12] = cited from earlier work
[13] = test system: PR; details: 21 to 25 day-old female Sprague-Dawley rat uterus; cited from earlier work
[14] = Body and organ weights (Examples 4 and 5)
Description: (§3) Methods: Rats were ovariectomized at 97 days of age, and treatments began at 117 days of age. […] Rats were euthanized on day 21.
For the control vehicle and the MCDF vehicle ethanol was added (5% v/v) and then evaporated away.

[15] = test system: uterine peroxidase; experiment: Uterine peroxidase assay in ovariectomized rats (Example 4); format: in vivo, Sprague-Dawley rat; details: 0.4 mg/kg/day each oral, 20 days
Source text: as §1

[16] = test system: uterus; experiment: Uterine wet weight in ovariectomized rats (Example 4); format: in vivo, Sprague-Dawley rat; details: 0.4 mg/kg/day each oral, 20 days
Source text: as §3

[17] = test system: rat uterus; details: cited from earlier work
[18] = test system: femurs; experiment: Bone effects in ovariectomized rats (femur weight and length); format: in vivo, Sprague-Dawley rat; details: tamoxifen 0.4, 6-MCDF 0.8 mg/kg/day oral, 20 days
Description: The ovariectomized rat is used as a model for osteoporosis.
Rats were euthanized on day 21. After uteri were excised and processed, both left and right femurs were excised and the length measured with calipers. […] Wet weight was measured after residual connective tissue was stripped away. Dry weight was measured after the bones were dried for 12 ours at 130° C.

[19] = test system: ER; details: 21 to 25 day-old female Sprague-Dawley rat uterus; cited from earlier work
[20] = test system: uterine peroxidase; experiment: Uterine peroxidase activity in ovariectomized rats (Example 6, Table 6); format: in vivo, Sprague-Dawley rat; details: tamoxifen 0.4, 6-MCDF 0.8 mg/kg/day oral, 20 days
Source text: as §1

[21] = test system: hepatic CYP1A1-dependent EROD activity; experiment: Hepatic EROD activity in DMBA-treated rats; details: 0.4 mg/kg/day each
Description: as §2

[22] = each drug 0.4 mg/kg/day by gavage, DMBA rats

Cc1cc(Cl)cc2c1oc1cc(Cl)cc(Cl)c12 [6-MCDF, 6-methyl-1,3,8-trichlorodibenzofuran]
Uterine cytosolic PR levels (fmol/mg protein) ([1]; control 308 ± 142): 338 ± 31 fmol/mg protein
Uterine cytosolic PR levels (fmol/uterus) ([1]; control 1100 ± 508): 1925 ± 177 fmol/uterus
Uterine cytosolic PR levels (fmol/g uterus) ([1]; control 8368 ± 3868): 10693 ± 986 fmol/g uterus
induction of hepatic CYP1A1-dependent activity [2]: not accompanied by any significant changes
potency as inducer of hepatic CYP1A1 relative to TCDD (times less potent) ([3]; less potent than TCDD, same animals): > 157,000 times
induction of CYP1A1 ([3]; result in words): weak inducer of CYP1A1
growth inhibition ([4]; 5 mg/kg/wk): > 50%
mammary tumor growth ([4]; 5, 10 or 25 mg/kg/wk, result in words): significantly inhibited
Uterine Progesterone Receptor (fmol/mg protein) ([5]; control 198 ± 15): 152.9 ± 35 fmol/mg protein
Uterine Progesterone Receptor (fmol/uterus) ([5]; control 765 ± 69): 441.5 ± 100 fmol/uterus
Uterine Progesterone Receptor (fmol/g uterus) ([5]; control 4462 ± 343): 3985 ± 907 fmol/g uterus
Tumor Weight ([6]; 0.4 mg/kg/day each, control 3.82 ± 1.18): 1.68 ± 0.53 g
Tumor Wt (% Control) ([6]; 0.4 mg/kg/day each, control 100 ± 27.7): 43.9 ± 12.8 % Control
Final Tumor Volume (% Control) ([6]; 0.4 mg/kg/day each, control 100 ± 31.5): 33.6 ± 11.2 % Control
Final Tumor Volume ([6]; 0.4 mg/kg/day each, control 2734 ± 956): 918 ± 305 mm^3
% Inhibition tumor volume [6, 22]: 66.4%
% Inhibition tumor weight [6, 22]: NS decrease
Uterine Wt. ([7]; 0.4 mg/kg/day each, 20 days, control 0.212 ± 0.017): 0.230 ± 0.037 % BW
Spleen Wt. ([7]; 0.4 mg/kg/day each, 20 days, control 0.257 ± .022): 0.255 ± 0.017 % BW
Kidney weight ([7]; 0.4 mg/kg/day each, 20 days, control 0.349 ± 0.007): 0.361 ± 0.016 % BW
Liver weight ([7]; 0.4 mg/kg/day each, 20 days, control 3.13 ± 0.12): 3.49 ± 0.16 % BW
Final Body Weight ([7]; 0.4 mg/kg/day each, 20 days, control 250 ± 5): 247 ± 4 g
Heart weight ([7]; rat, in vivo): 0.405 ± 0.10 % BW
liver morphology [8]: not accompanied by any significant changes
liver/body weight ratios [8]: not accompanied by any significant changes
binding to the Ah receptor [9]: bound to the Ah receptor
Rat weight at start of treatments ([10]; Table 7, baseline, control 255 ± 3): 257 ± 4 g
Spleen weight (% body weight) ([10]; Table 7, control 0.289 ± 0.018): 0.265 ± 0.014 % body weight
Kidney weight (% body weight) ([10]; Table 7, control 0.334 ± 0.010): 0.352 ± 0.015 % body weight
Heart weight (% body weight) ([10]; Table 7, control 0.360 ± 0.010): 0.356 ± 0.012 % body weight
Rat weight prior to euthanasia ([10]; Table 7, control 295 ± 11): 289 ± 7 g
Uterine wet weight (% body weight) ([11]; control 0.0583 ± 0.0055): 0.0454 % body weight
Uterine wet weight ([11]; control 0.171 ± 0.15): 0.131 g
effect on TCDD induced toxic responses ([12]; co-treatment with TCDD): inhibiter TCDD induced toxic responses
toxicity ([12]; result in words): minimal toxicity
nuclear and cytosolic progesterone receptor (PR) binding [13]: dose-dependent decrease
splenic wet weight ([14]; 0.4 mg/kg/day oral, 20 days, ovariectomized rats, result in words): slight but significant increase
Rat weight at start of treatments ([14]; Table 5, baseline, control 273.1 ± 8.1): 274.7 ± 7.0 g
Spleen wet weight (% body wt) ([14]; Table 5, control 0.247 ± 0.007): 0.298 ± 0.015 % body wt
kidney weight (% body wt) ([14]; Table 5, control 0.318 ± 0.010): 0.332 ± .004 % body wt
Heart weight (% body wt) ([14]; Table 5, control 0.319 ± 0.006): 0.344 ± 0.014 % body wt
Spleen wet weight ([14]; Table 5, control 0.72O ± 0.012): 0.887 ± 0.043 g
Kidney weight ([14]; Table 5, control 0.933 ± 0.038): 0.991 ± 0.026 g
Heart weight ([14]; Table 5, control 0.935 ± 0.039): 1.024 ± 0.037 g
Liver weight (% body wt) ([14]; Table 5, control 4.06 ± 0.23): 4.37 ± 0.26 % body wt
Liver weight ([14]; Table 5, control 11.88 ± 0.78): 13.04 ± 0.87 g
Rat weight prior to euthanasia ([14]; Table 5, control 293.2 ± 10.9): 298.3 ± 5.0 g
Uterine Peroxidase Assay (Abs/g uterus) ([15]; per g uterus): 1.14 ± 0.02 Fold Increase over Control
Uterine Peroxidase Assay (Abs/mg protein) ([15]; per mg protein): 1.05 ± 0.02 Fold Increase over Control
Uterine Peroxidase Assay (Abs/uterus) ([15]; per uterus): 1.56 ± 0.03 Fold Increase over Control
Uterine Wet Weight (% body wt) ([16]; control 0.045 ± 0.002): 0.060 ± 0.006 % body wt
Uterine Wet Weight ([16]; control 0.131 ± 0.006): 0.180 ± 0.019 g
E2-induced hypertrophy, peroxidase activity, cytosolic ER and PR binding, EGF receptor and c-fos mRNA levels ([17]; rat uterus): inhibited
effect on TCDD-induced antiestrogenic activity ([17]; rat uterus): did not inhibit
antiestrogenicity in the rat uterus ([17]; result in words): antiestrogen in the rat uterus
Dry bone weight ([18]; control 0.180 ± 0.005): 0.183 ± 0.003 % body weight
Wet bone weight ([18]; control 0.347 ± 0.009): 0.341 ± 0.008 % body weight
Bone length index ([18]; control 12.1 ± 0.4): 12.17 ± 0.3 mm/body weight × 100
nuclear and cytosolic ER binding [19]: dose-dependent decrease
Uterine Peroxidase Activity (Absorbance/g uterus) ([20]; per g uterus): 0.88 ± 0.01 Fold Increase over control
Uterine Peroxidase Activity (Absorbance/mg protein) ([20]; per mg protein): 0.99 ± 0.01 Fold Increase over control
Uterine Peroxidase Activity (Absorbance/uterus) ([20]; per uterus): 0.57 ± 0.01 Fold Increase over control
EROD activity ([21]; 20 days, control 118 ± 40): 140 ± 32 pmol/mg/min
induction of hepatic EROD activity ([21]; result in words): did not induce
